Reference: paper PMC5762913, “Probing the molecular basis of hERG drug block with unnatural amino acids” (Scientific Reports, 2018)

Assays:
[1] = system: nicotinic receptor α-subunit Trp-149 doubly fluorinated; design: method as in PMID 9770444; details: doubly fluorinating Trp-149 in the α-subunit; cited from earlier work
hERG S631A = details: S631A mutation which abolishes inactivation, versus WT; cited from earlier work
hERG Tyr652 and Phe656 = assay: Assessment of cation-π interaction in hERG drug block across fluorinated Phe series; details: judged from IC50 across Y652 and F656 fluorinated Phe series
Text: Testing whether a cation-π relationship occurs at an aromatic residue can be accomplished by measuring the impact of substitution with a series of fluorinated aromatic amino acids. Successive fluorinations of aromatic side chains yield additive reductions in ability to donate π electrons to cation-π interactions[30]. Through the use of nonsense suppression, we incorporated singly and doubly fluorinated phenylalanine derivatives at both Tyr652 and Phe656. These UAA also have the advantage of providing a sterically conservative means of studying the specific nature of interactions of individual residues. If hERG drug interactions depend largely on cation-π binding interactions at sites Tyr652 and Phe656, then successive fluorinations at these sites should decrease drug affinity in a linear manner[30].
This protocol is repeated in successive sweeps as either control or drug-containing solutions flow into the bath chamber and over the oocyte. […] The steady state current at −50 mV reached at each drug concentration was normalized to the steady state current at −50 mV with no drug. From these normalized values, a concentration-response curve was generated and fit with a Hill equation. IC50 and Hill coefficient values were generated from each Hill fit. […]

SMILES	reduction of potency [1]	potency of block (hERG S631A)	Cation – π behaviour? (hERG Tyr652 and Phe656)
CC(=O)OCC[N+](C)(C)C [acetyl choline]	nearly an order of magnitude		
C=C[C@H]1C[N@@]2CC[C@H]1C[C@@H]2[C@@H](O)c1ccnc2ccc(OC)cc12 [Quinidine, quinidine]		reduced	No
CN(CCOc1ccc(NS(C)(=O)=O)cc1)CCc1ccc(NS(C)(=O)=O)cc1 [Dofetilide, dofetilide]		reduced	No
